For orientation: ED50 means the dose at which the effect has come halfway, by size or by number of responders. As usually defined, the Ki is a measure of affinity in units of concentration, obtained from inhibition or displacement. Lower therefore signals a stronger hold on the target. By Kd is commonly meant the concentration at which binding is half-saturated.

The test system of the first assay is ventricular arrhythmias caused by the aconitine. The experiment in a line: aconitine test on the rat (antiarrhythmic activity). Conditions: iv, read-out: ED50, dose which increases by 50% the time of perfusion of the aconitine versus control animals. The format is in vivo. How it is done:
The principle of the method rests on the time of induction of the ventricular arrhythmias caused by the aconitine which is slowly perfused in rats. An antiarrhythmic substance retards the appearance of the arrhythmias and the delay is proportional to the activity of the molecule.
Groups of 5 male rats are used. An individual annesthesia is realized (10% urethane: 1 g/kg/ip) in order to permit a catheterization of the vein of the penis. The electrocardiogram is recorded. At time T=O the substance studied is injected in the form of an aqueous solution, at the rate of 2.5 ml of solution per kg in 30 seconds. At time T=90 seconds, say 1 minute after the end of the injection, the aconitine is perfused at the rate of 20 μg per minute, until the appearance of extra […] systoles. The time of perfusion of the aconitine is noted.
The results are expressed by ED50, which is the dose of product in mg/kg which increases by 50% the time of perfusion of the aconitine in comparison with the perfusion time of aconitine for the control animals.
Regarding `O=C(CC1CCCNC1)c1cc(-c2ccccc2)nc2ccccc12` (stereo not drawn) [Example 3, 1-[4-(2-phenyl)quinolyl]-2-(3-piperidyl)-ethanone], the median effective dose (ED50) was 2.8 mg/kg.
On to `COc1ccc2nccc(CCCC3CCCNC3)c2c1` (stereo not drawn) [Example 11, 6-methoxy-4-[3-(3-piperidyl)-propyl]-quinoline], for which the ED50 was 7.8 mg/kg.
As to `c1ccc(-c2cc(CCCC3CCCNC3)c3ccccc3n2)cc1` (stereo not drawn) [Example 14, 2-phenyl-4-[3-(3-piperidyl)-propyl]-quinoline], the 50% effective dose (ED50) was 2.2 mg/kg.

For another assay, the target named is Cerebral Binding Sites of the Benzodiazepines.
Assay: not given
Details: not given
`COc1ccc2nccc(C(=O)CCC3CCCNC3)c2c1` (stereo not drawn) [Example 1, 1-[4-(6-methoxy)quinolyl]-3-(3-piperidyl)-1-propanone] came in with a Ki of 2000 nM.
Still for that read-out and setting: the value for `O=C(CCC1CCCNC1)c1cc(-c2ccccc2)nc2ccccc12` (stereo not drawn) [Example 4, 1-[4-(2-phenyl)quinolyl]-3-(3-piperidyl)-1-propanone] was 800 nM.
`COc1ccc2nccc(CCCC3CCCNC3)c2c1` (stereo not drawn) [Example 11, 6-methoxy-4-[3-(3-piperidyl)-propyl]-quinoline] displayed a Ki of 5500 nM.
Same read-out and setting: the value for `c1ccc(-c2cc(CCC3CCCNC3)c3ccccc3n2)cc1` (stereo not drawn) [Example 13, 2-phenyl-4-[2-(3-piperidyl)-ethyl]-quinoline] was 100 nM; that for `c1ccc(-c2cc(CCCC3CCCNC3)c3ccccc3n2)cc1` (stereo not drawn) [Example 14, 2-phenyl-4-[3-(3-piperidyl)-propyl]-quinoline] was 1000 nM.
Compound `Clc1ccc(-c2cc(CCC3CCCNC3)c3ccccc3n2)cc1` (stereo not drawn) [Example 20, 2-(4-chloro-phenyl)-4-[2-(3-piperidyl)-ethyl]-quinoline] yielded a Ki of 1600 nM.
Same read-out and setting: the value for `c1ccc(-c2cc(CCC3CCCCN3)c3ccccc3n2)cc1` (stereo not drawn) [Example 22, 2-phenyl-4-[2-(2-piperidyl)-ethyl]-quinoline] was 600 nM; that for `CN1CCCC(CCc2cc(-c3ccccc3)nc3ccccc23)C1` (stereo not drawn) [Example 23, 4-{2-[3-(1-methyl)piperidyl]-ethyl}-2-phenyl-quinoline] was 900 nM; that for `CN1CCCC(CCCc2cc(-c3ccccc3)nc3ccccc23)C1` (stereo not drawn) [Example 24, 4-{3-[3-(1-methyl)piperidyl]-propyl}-2-phenyl-quinoline] was 3000 nM.
The same measure, in the same setting: then `c1ccc(-c2cc(CCC3CCNC3)c3ccccc3n2)cc1` (stereo not drawn) [Example 29, 2-phenyl-4-[2-(3-pyrrolidinyl)-ethyl]-quinoline], with 700 nM; and `c1ccc(-c2cc(CCCC3CCCCN3)c3ccccc3n2)cc1` (stereo not drawn) [Example 30, 4-[3-(2-piperidyl)-propyl]-2-phenyl-quinoline], with 2700 nM.

The next assay shares this target. Kind of assay: displacement of tritiated Diazepam (3H Diazepam) from cerebral benzodiazepine binding sites (method of Mohler and Coll.). Conditions: read-out: KD, constant of affinity of 3H Diazepam; constant used in the Ki formula.
On to `CN1C(=O)CN=C(c2ccccc2)c2cc(Cl)ccc21` [^3 H Diazepam], for which the dissociation constant (Kd) came out at 2740 nM.

Values taken from patent US4402961A, “Derivatives of 1-(2-,3- or 4-quinolyl)-2- or -3-(2- or 3-piperidyl or -pyrrolidinyl) ethanone or propanone, and their utilization as antiarrhythmics, anticonvulsivants and for the treatment of anxiety” (Pharmindustrie, priority 1980, dated 1983).
